Data on 17 compounds can be found in patent US20230107941A1, “HEPATITIS B CAPSID ASSEMBLY MODULATORS” (Venatorx Pharmaceuticals, Inc., priority 2019, published 2023).

Data set [1] can be described thus: In vitro cytotoxicity assay (MTT cell viability) in HepG2 cells. The following applies: human. In kind it is cell-based, human. How it is done: To evaluate antiviral selectivity, the cytotoxic activity of each compound was determined using a standard cell viability assay performed on the parental HepG2 cell line. Cell viability was determined by measuring the conversion of 3-(4,5-dimethylthiazol-2-yl)-2,5-diphenyltetrazolium bromide (MTT) to the insoluble formazan salt crystal that occurs in live cells. Briefly, HepG2 cells were seeded in 96-well plates at a density of 20,000 cells per well in […] (complete growth medium) and allowed to adhere overnight in a 37° C., […] humidified incubator. The next day, test agents were prepared by performing 8 half-log10 serial dilutions in 100% DMSO at 200× the final desired concentration in the assay. Compounds were tested over a range of concentrations from 30 μM to 1.0 nM in the assay. HepG2 cells were incubated in the presence of various concentrations of CAMs for 7 days in a 37° C., […] humidified incubator. At the completion of the 7-day incubation period, MTT reagent was added to each well and the mixture was incubated for an additional 3-4 hours. At the completion of the incubation period, all wells were aspirated to remove the culture medium. The formazan crystals were solubilized from the cell monolayers with 100% DMSO. Plates were briefly mixed on an orbital shaker and absorbance was measured at 492 nm using a Perkin-Elmer EnVision multi-label plate reader. All absorbance values were converted to a percentage of the signal obtained from the vehicle treated controls. Absorbance values at 492 nm are directly proportional to the number of viable cells present in the sample. A CC50 value (cytotoxic concentration that results in loss of 50% cell viability) was calculated from the dose-response curve by 4-parameter, non-linear regression analysis using the GraphPad Prism software. The positive control compound, staurosporine, reduced the viability of HepG2 cells in a dose-dependent manner (CC50=100 nM).

For data set [2], the system named is HBV. Briefly: In vitro antiviral assay: anti-HBV replication in HepAD38 cells (extracellular HBV DNA by QPCR). The following applies: Hepatitis B virus. Format: cell-based, hepatitis B virus (genotype D, serotype ayw). The protocol:
The anti-HBV activity of the Capsid Assembly Modulators (CAMs) was evaluated in a cell based assay utilizing the human hepatoma cell line HepAD38 (Ladner, S K., et al., 1998). HepAD38 cells were derived from the parental line, HepG2, that were stably transfected with a construct containing an HBV genome (genotype D, serotype ayw) under the control of a tetracycline repressible CMV promoter. Upon removal of tetracycline, viral pre-genomic RNA (pgRNA) and mRNAs are expressed and infectious viral particles are assembled and secreted into the culture medium providing a reliable, robust system to measure multiple steps of the HBV life cycle. Disruption of capsid formation results in reduced levels of DNA-containing virus particles that are released into the culture supernatant. To quantify the effect of CAMs on HBV replication, we developed a sensitive QPCR-based assay that measures extracellular HBV DNA levels upon treatment of HepAD38 cells with various concentrations of test compounds.
HepAD38 cells were maintained in DMEM/F12 medium containing 10% FBS, 400 μg/mL G418 and 0.3 μg/mL tetracycline (tet+ media) to maintain repression of HBV replication. To evaluate each compound, HepAD38 cells were seeded into 24-well collagen coated culture plates (Corning BioCoat) at a density of 200,000 cells per well in 1 mL of medium without tetracycline (tet-media) and allowed to adhere overnight at 37° C., 5% CO2 in a humidified incubator. The following day, media was refreshed and a dose range of each compound was prepared by performing 1 log10 serial dilutions in 100% DMSO at 200× the desired assay concentration. Dilutions were then added to the cells resulting in a final dose range of 1 μM to 10 pM and the plates were returned to the incubator. Following 7 days of incubation, culture supernatants were harvested and HBV DNA levels were evaluated by QPCR and compared to the vehicle treated control wells (i.e. DMSO alone).
To quantify HBV DNA levels, cell culture supernatants were diluted 1:10 in sterile, nuclease-free water (Gibco). The diluted supernatants were subsequently added to a PCR master mix containing 1× Roche Light Cycler Master Mix, 0.5 μM forward primer, 0.5 μM reverse primer (Fwd: 5′-[…] (SEQ ID NO 1); Rev: 5′-[…] (SEQ ID NO 2)), 0.2 μM Roche Universal Probe Library Probe 25. The volume was brought to 20 μL with nuclease-free water and amplification of the HBV target sequence was performed using a Roche LightCycler 480 QPCR instrument. PCR extended out to 45 cycles with each cycle consisting of a denaturation step at 95° C. for 10 sec., followed by an annealing step at 60° C. for 10 sec. and a brief extension step at 72° C. for 1 sec.
Extracellular HBV DNA levels, expressed in copies/mL, were determined by comparison to a standard curve (10^2-10^9 copies/mL) using the Roche LightCycler analysis software. These values were subsequently converted to percent inhibition of HBV replication by dividing the HBV DNA levels in the experimental samples with those obtained from the vehicle control (˜1-2×10^5 copies/mL). Potency, expressed as an EC50 (the effective concentration required to inhibit 50% of HBV replication), was calculated from the dose-response curve using a 4-parameter non-linear regression analysis (GraphPad Prism). The nucleoside analog inhibitor entecavir was used as a positive control to validate each assay run. The EC50 value of entecavir in the HepAD38 assay was 0.5 nM, as previously reported in the literature.

Setting [3] is: HePAD38, 168 h, 7 days incubation, extracellular HBV DNA by QPCR, read-out: Anti-HBV EC50.

The structures appear in SMILES notation. Read-outs that look alike come from different tables or passages of the source.

The term CC50 denotes the concentration giving 50% cytotoxicity. As a reminder, the EC50 is the concentration giving half of the maximal effect. Take `Cc1cc(NC(=O)c2c(C)c(C(=O)C(=O)N[C@@H]3CC[C@H](O)CC3(C)C)n(C)c2C)ccc1F` (single isomer, unassigned) [Example 142]: the CC50 at 7 days in data set [1] is over 30000 nM. In addition, the EC50 in data set [2] (setting [3]) is under 50 nM. For `Cc1cc(NC(=O)c2c(C)c(C(=O)C(=O)N[C@@H]3CC[C@@H](O)CC3(C)C)n(C)c2C)ccc1F` (single isomer, unassigned) [Example 143] the same measures were over 30000 nM and under 50 nM. For `Cc1cc(NC(=O)c2c(C)c(C(=O)C(=O)N[C@H]3CC[C@@H](S(C)(=O)=O)CC3)n(C)c2C)ccc1F` [Example 1, N-(4-fluoro-3-methylphenyl)-1,2,4-trimethyl-5-(2-(((1s,4s)-4-(methylsulfonyl)cyclohexyl)amino)-2-oxoacetyl)-1H-pyrrole-3-carboxamide] the same measures were over 30000 nM and under 50 nM. For `Cc1c(C(=O)Nc2cc(Cl)nc(Cl)c2)c(C)n(C)c1C(=O)C(=O)N[C@H]1CC[C@@H](O)CC1` [Example 2, N-(2,6-dichloropyridin-4-yl)-5-(2-(((1s,4s)-4-hydroxycyclohexyl)amino)-2-oxoacetyl)-1,2,4-trimethyl-1H-pyrrole-3-carboxamide] the same measures were over 30000 nM and under 50 nM. In data set [1], `Cc1cc(NC(=O)c2c(C)c(C(=O)C(=O)N[C@]3(C4CC4)CC[C@@H](O)CC3)n(C)c2C)ccc1F` [Example 3, 5-(2-(((1r,4r)-1-cyclopropyl-4-hydroxycyclohexyl)amino)-2-oxoacetyl)-N-(4-fluoro-3-methylphenyl)-1,2,4-trimethyl-1H-pyrrole-3-carboxamide] yielded a CC50 at 7 days of over 30000 nM. The EC50 in data set [2] (setting [3]) was under 50 nM. `CC[C@]1(NC(=O)C(=O)c2c(C)c(C(=O)Nc3ccc(F)c(C)c3)c(C)n2C)CC[C@H](O)CC1` [Example 4, 5-(2-(((1r,4r)-1-ethyl-4-hydroxycyclohexyl)amino)-2-oxoacetyl)-N-(4-fluoro-3-methylphenyl)-1,2,4-trimethyl-1H-pyrrole-3-carboxamide] gave a CC50 at 7 days in data set [1] of over 30000 nM. The EC50 in data set [2] (setting [3]) is under 50 nM. Regarding `CC[C@]1(NC(=O)C(=O)c2c(C)c(C(=O)Nc3ccc(F)c(C)c3)c(C)n2C)CC[C@@H](O)CC1` [Example 5, 5-(2-(((1s,4s)-1-ethyl-4-hydroxycyclohexyl)amino)-2-oxoacetyl)-N-(4-fluoro-3-methylphenyl)-1,2,4-trimethyl-1H-pyrrole-3-carboxamide], the CC50 at 7 days in data set [1] is over 30000 nM. Moreover, the EC50 in data set [2] (setting [3]) is under 50 nM. For `Cc1cc(NC(=O)c2c(C)c(C(=O)C(=O)N[C@]3(C4CC4)CC[C@H](O)CC3)n(C)c2C)ccc1F` [Example 6, 5-(2-(((1s,4s)-1-cyclopropyl-4-hydroxycyclohexyl)amino)-2-oxoacetyl)-N-(4-fluoro-3-methylphenyl)-1,2,4-trimethyl-1H-pyrrole-3-carboxamide] the same measures were over 30000 nM and under 50 nM. For `CCc1c(C(=O)Nc2ccc(F)c(C)c2)c(C)n(C)c1C(=O)C(=O)N[C@]1(C)CC[C@H](O)CC1` [Example 7, 4-ethyl-N-(4-fluoro-3-methylphenyl)-5-(2-(((1s,4s)-4-hydroxy-1-methylcyclohexyl)amino)-2-oxoacetyl)-1,2-dimethyl-1H-pyrrole-3-carboxamide] the same measures were over 30000 nM and under 50 nM.

`Cc1cc(NC(=O)c2c(C)c(C(=O)C(=O)N[C@H]3CC[C@H](S(C)(=O)=O)CC3)n(C)c2C)ccc1F` [Example 8, N-(4-fluoro-3-methylphenyl)-1,2,4-trimethyl-5-(2-(((1r,4r)-4-(methylsulfonyl)cyclohexyl)amino)-2-oxoacetyl)-1H-pyrrole-3-carboxamide]: in data set [1], the CC50 at 7 days lay in the range of 5000 to 30000 nM. Besides, the EC50 in data set [2] (setting [3]) was under 50 nM. The corresponding values for `Cc1c(C(=O)Nc2cc(Cl)nc(Cl)c2)c(C)n(C)c1C(=O)C(=O)N[C@]1(C)CC[C@@H](O)CC1` [Example 9, N-(2,6-dichloropyridin-4-yl)-5-(2-(((1r,4r)-4-hydroxy-1-methylcyclohexyl)amino)-2-oxoacetyl)-1,2,4-trimethyl-1H-pyrrole-3-carboxamide] are over 30000 nM and under 50 nM. `Cc1c(C(=O)Nc2cc(Cl)cc(Cl)c2)c(C)n(C)c1C(=O)C(=O)N[C@H]1CC[C@@H](O)CC1` [Example 10, N-(3,5-dichlorophenyl)-5-(2-(((1s,4s)-4-hydroxycyclohexyl)amino)-2-oxoacetyl)-1,2,4-trimethyl-1H-pyrrole-3-carboxamide] showed a CC50 at 7 days in data set [1] of 5000 to 30000 nM. Further, the concentration giving a half-maximal response (EC50) in data set [2] (setting [3]) is under 50 nM. In the case of `Cc1c(C(=O)Nc2cc(Cl)nc(Cl)c2)c(C)n(C)c1C(=O)C(=O)N[C@]1(C)CC[C@H](O)CC1` [Example 11, N-(2,6-dichloropyridin-4-yl)-5-(2-(((1s,4s)-4-hydroxy-1-methylcyclohexyl)amino)-2-oxoacetyl)-1,2,4-trimethyl-1H-pyrrole-3-carboxamide], the CC50 at 7 days in data set [1] was over 30000 nM. Moreover, the EC50 in data set [2] (setting [3]) was under 50 nM. For `Cc1c(C(=O)Nc2cccc(Cl)n2)c(C)n(C)c1C(=O)C(=O)N[C@H]1CC[C@@H](O)CC1` [Example 12, N-(6-chloropyridin-2-yl)-5-(2-(((1s,4s)-4-hydroxycyclohexyl)amino)-2-oxoacetyl)-1,2,4-trimethyl-1H-pyrrole-3-carboxamide] the same measures were over 30000 nM and 50 to 499 nM.

In data set [1], `Cc1cc(NC(=O)c2c(C)c(C(=O)C(=O)N[C@H]3CCCC(F)(F)[C@@H]3O)n(C)c2C)ccc1F` [Example 13, 5-(2-(((1S,2R)-3,3-difluoro-2-hydroxycyclohexyl)amino)-2-oxoacetyl)-N-(4-fluoro-3-methylphenyl)-1,2,4-trimethyl-1H-pyrrole-3-carboxamide] gave a CC50 at 7 days of over 30000 nM. Moreover, the EC50 in data set [2] (setting [3]) was under 50 nM.

Consider `C=C1[C@H](CO)[C@@H](O)C[C@@H]1n1cnc2c(=O)[nH]c(N)nc21` [entecavir, reference compound], for which, in data set [2] (HePAD38, positive control, read-out: EC50 in the HepAD38 assay), the EC50 turned out to be 0.5 nM. As for `CN[C@@H]1C[C@H]2O[C@@](C)([C@@H]1OC)n1c3ccccc3c3c4c(c5c6ccccc6n2c5c31)C(=O)NC4` [staurosporine, reference compound], the CC50 at 7 days in data set [1] (positive control, HepG2 cells, MTT, read-out: CC50 (viability of HepG2 cells)) worked out at 100 nM.
